Measurements: EP4800015A1, “AZABICYCLO DERIVATIVE AND PREPARATION METHOD THEREFOR, AND USE” (Zhejiang Hisun Pharmaceutical Co., Ltd., priority 2023, dated 2025)
Where two headings read alike, the source gives them in different places.

Biological target: T1, recombinant human WRN (Homo sapiens, UniProt Q14191)
T1 construct: purchased BPS 101264
Assay: Inhibition of WRN enzyme activity (ATPase), ADP-Glo Kinase Assay
Assay type: biochemical
Conditions: WRN protein 5 nM, Flap 0.1 nM, ATP 30 µM
Summary of the method: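 Recombinant human WRN (5 nM) was preincubated with compound (1000–0.004 nM) for 15 min at room temperature. Flap26 5'-flap DNA (0.1 nM) and 30 µM ATP were then added for 10 min in Tris pH 7.5, MgCl2, NaCl, BSA, Pluronic buffer. ADP was detected by ADP-Glo luminescence, and IC50 was obtained by nonlinear regression versus a 0.1% DMSO control.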

T1 sequence (Q14191 whole entry): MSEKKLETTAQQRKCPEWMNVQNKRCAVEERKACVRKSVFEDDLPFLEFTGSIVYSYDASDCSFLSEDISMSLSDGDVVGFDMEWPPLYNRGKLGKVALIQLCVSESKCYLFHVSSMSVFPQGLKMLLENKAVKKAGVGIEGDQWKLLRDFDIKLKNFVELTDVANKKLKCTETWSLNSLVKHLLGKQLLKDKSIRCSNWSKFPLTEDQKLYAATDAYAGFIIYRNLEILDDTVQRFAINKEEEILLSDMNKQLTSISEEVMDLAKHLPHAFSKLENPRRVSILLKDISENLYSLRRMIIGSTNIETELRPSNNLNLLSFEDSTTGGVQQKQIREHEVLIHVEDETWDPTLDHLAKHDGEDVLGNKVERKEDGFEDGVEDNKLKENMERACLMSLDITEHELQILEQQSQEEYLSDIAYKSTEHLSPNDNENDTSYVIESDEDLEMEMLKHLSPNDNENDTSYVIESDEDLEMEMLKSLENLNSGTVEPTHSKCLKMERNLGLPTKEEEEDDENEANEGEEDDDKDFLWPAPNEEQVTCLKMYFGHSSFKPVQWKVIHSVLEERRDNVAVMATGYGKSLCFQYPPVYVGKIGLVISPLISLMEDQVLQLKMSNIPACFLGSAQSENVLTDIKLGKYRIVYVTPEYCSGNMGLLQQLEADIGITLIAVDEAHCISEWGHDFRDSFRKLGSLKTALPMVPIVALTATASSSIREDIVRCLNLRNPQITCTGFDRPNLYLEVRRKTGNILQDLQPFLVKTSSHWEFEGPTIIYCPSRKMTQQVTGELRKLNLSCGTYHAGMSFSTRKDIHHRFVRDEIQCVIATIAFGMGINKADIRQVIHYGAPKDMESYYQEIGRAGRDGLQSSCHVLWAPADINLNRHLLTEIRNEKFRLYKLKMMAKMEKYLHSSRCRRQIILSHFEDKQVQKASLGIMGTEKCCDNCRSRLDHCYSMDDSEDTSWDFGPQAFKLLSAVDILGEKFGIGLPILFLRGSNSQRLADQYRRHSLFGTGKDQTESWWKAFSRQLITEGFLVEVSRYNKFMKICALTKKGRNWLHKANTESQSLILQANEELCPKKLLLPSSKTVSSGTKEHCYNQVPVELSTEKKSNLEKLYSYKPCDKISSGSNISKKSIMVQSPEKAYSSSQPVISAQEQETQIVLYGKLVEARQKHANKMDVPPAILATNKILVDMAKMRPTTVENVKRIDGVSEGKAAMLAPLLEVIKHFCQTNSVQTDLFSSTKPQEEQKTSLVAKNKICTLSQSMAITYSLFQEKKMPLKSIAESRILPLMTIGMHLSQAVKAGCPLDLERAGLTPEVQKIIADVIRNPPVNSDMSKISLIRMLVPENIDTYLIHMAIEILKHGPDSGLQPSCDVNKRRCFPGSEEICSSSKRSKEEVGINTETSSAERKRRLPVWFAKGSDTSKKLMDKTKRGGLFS

SMILES | IC50 (read-out: IC50) | IC50
CCc1c(N2CCN(C(=O)c3ncnc(C)c3O)CC2)c(=O)n2nc(-c3ccc4ccn(C)c4c3)nc2n1CC(=O)Nc1ccc(C(F)(F)F)cc1Cl [Example 128, N-(2-chloro-4-(trifluoromethyl)phenyl)-2-(5-ethyl-6-(4-(5-hydroxy-6-methylpyrimidine-4-carbonyl)piperazin-1-yl)-2-(1-methyl-1H-indol-6-yl)-7-oxo-[1,2,4]triazolo[1,5-a]pyrimidin-4(7H)-yl)ac etamide] | 1 to 100 nM | –
CCc1c(N2CCN(C(=O)c3ncnc(C)c3O)CC2)c(=O)n2nc(-c3ccc4ncnn4c3)nc2n1CC(=O)Nc1ccc(C(F)(F)F)cc1Cl [Example 135, 2-(2-([1,2,4]triazolo[1,5-a]pyridin-6-yl)-5-ethyl-6-(4-(5-hydroxy-6-methylpyrimidine-4-carbonyl)piperazin-1-yl)-7-oxo-[1,2,4]triazolo[1,5-a]pyrimidin-4(7H)-yl)-N-(2-chloro-4-(trifluoromethyl)phenyl)acetamide] | 1 to 100 nM | –
CCc1c(N2CCN(C(=O)c3ncnc(C)c3O)CC2)c(=O)n2nc(-c3ccn4ncnc4c3)nc2n1CC(=O)Nc1ccc(C(F)(F)F)cc1Cl [Example 137, 2-(2-([1,2,4]triazolo[1,5-a]pyridin-7-yl)-5-ethyl-6-(4-(5-hydroxy-6-methylpyrimidine-4-carbonyl)piperazin-1-yl)-7-oxo-[1,2,4]triazolo[1,5-a]pyrimidin-4(7H)-yl)-N-(2-chloro-4-(trifluoromethyl)phenyl)acetamide] | 1 to 100 nM | –
CCc1c(N2CCN(C(=O)c3ncnc(C)c3O)CC2)c(=O)n2nc(-c3ccc4nc[nH]c4c3)nc2n1CC(=O)Nc1ccc(C(F)(F)F)cc1Cl [Example 138, 2-(2-(1H-benzo[d]imidazol-6-yl)-5-ethyl-6-(4-(5-hydroxy-6-methylpyrimidine-4-carbonyl)piperazin-1-yl)-7-oxo-[1,2,4]triazolo[1,5-a]pyrimidin-4(7H)-yl)-N-(2-chloro-4-(trifluoromethyl)phenyl) acetamide] | – | 1 to 100 nM
CCc1c(N2CCN(C(=O)c3ncnc(C)c3O)CC2)c(=O)n2nc(-c3ccc4cnn(C)c4c3)nc2n1CC(=O)Nc1ccc(C(F)(F)F)cc1Cl [Example 139, N-(2-chloro-4-(trifluoromethyl)phenyl)-2-(5-ethyl-6-(4-(5-hydroxy-6-methylpyrimidine-4-carbonyl)piperazin-1-yl)-2-(1-methyl-1H-indazol-6-yl)-7-oxo-[1,2,4]triazolo[1,5-a]pyrimidin-4(7H)-yl) acetamide] | – | 1 to 100 nM

Second part, led by results:

IC50 (read-out: IC50) | SMILES | IC50
1 to 100 nM | CCc1c(N2CCN(C(=O)c3ncnc(C)c3O)CC2)c(=O)n2nc(-c3ccc4c(c3)C(=O)NC4)nc2n1CC(=O)Nc1ccc(C(F)(F)F)cc1Cl [Example 127, N-(2-chloro-4-(trifluoromethyl)phenyl)-2-(5-ethyl-6-(4-(5-hydroxy-6-methylpyrimidine-4-carbonyl)piperazin-1-yl)-7-oxo-2-(3-oxoisoindolin-5-yl)-[1,2,4]triazolo[1,5-a]pyrimidin-4(7H)-yl)acetamide] | –
1 to 100 nM | CCc1c(N2CCN(C(=O)c3ncnc(C)c3O)CC2)c(=O)n2nc(-c3cc4cccnc4s3)nc2n1CC(=O)Nc1ccc(C(F)(F)F)cc1Cl [Example 131, N-(2-chloro-4-(trifluoromethyl)phenyl)-2-(5-ethyl-6-(4-(5-hydroxy-6-methylpyrimidine-4-carbonyl)piperazin-1-yl)-7-oxo-2-(thieno[2,3-b]pyridin-2-yl)-[1,2,4]triazolo[1,5-a]pyrimidin-4(7H)-yl)a cetamide] | –
1 to 100 nM | CCc1c(N2CCN(C(=O)c3ncnc(C)c3O)CC2)c(=O)n2nc(-c3ccn4ccnc4c3)nc2n1CC(=O)Nc1ccc(C(F)(F)F)cc1Cl [Example 136, N-(2-chloro-4-(trifluoromethyl)phenyl)-2-(5-ethyl-6-(4-(5-hydroxy-6-methylpyrimidine-4-carbonyl)piperazin-1-yl)-2-(imidazo[1,2-a]pyridin-7-yl)-7-oxo-[1,2,4]triazolo[1,5-a]pyrimidin-4(7H)-yl)acetamide] | –
